Measured values from US9321785B2, “Methods for the treatment or prophylaxis of thrombosis or embolism” (IPCA Laboratories Limited, priority 2010, dated 2016).
Like-named read-outs stand apart in the source and are kept apart here.

Experiments:
[1] = test system: recurrent ischemic events / major bleeding events; conditions: cited from earlier work
[2] = test system: ADP induced platelet aggregation (platelet-rich plasma); assay: Measurement of platelet aggregation with ADP, ex vivo after oral administration; assay type: in vivo, rat; conditions: 2 h before sampling, ADP 2.5 μM
Protocol: The platelet aggregation inhibiting activities and the antithrombotic activities of the compounds were studied in the rat by standard methods. The activity on the aggregation of plates induced by ADP or collagen was determined ex-vivo. […] The aggregating solutions used were: a 500 μM aqueous solution of ADP (final concentration 2.5 μM). The aggregation of the platelets was monitored as described by Born (Nature 194, p. 927 […]), which is incorporated herein by reference, using a Coultronics® aggregometer at a temperature of 37° C. and agitation of 900 rpm. For aggregation with ADP, the aggregometer generates a curve representing a platelet aggregation as measured by a change in optical density. The height of this curve is defined as the height of aggregation. […] The controls are without drug.

[3] = test system: venous thrombus in vena cava; assay: Venous thrombosis on a screw thread (antithrombotic activity); assay type: in vivo, rat; conditions: for % inhibition / Weight of thrombus: thrombus after 5 h
Source text: The antithrombotic activity has also been studied in the test of venous thrombosis on a screw thread described by Kumada T. et al. in Thromb. Res 18 p. 189 (1980). Female rats of the same type as those previously described, in groups of 10 animals, were anesthetized with diethyl ether and their vena cava was isolated after abdominal incision. […] The thrombi formed rapidly and five hours later, under pentobarbital anesthesia, the abdomen is reopened and ligatures are placed above and below the screw thread which is withdrawn after longitudinal incision of the vein and the isolated thrombus is weighed. […] The control is without drug.

[4] = test system: ADP induced platelet aggregation; conditions: cited from earlier work; for Time until 50% inhibition of ADP induced platelet aggregation is reached: 5 μM ADP ex vivo, LTA
[5] = cited from earlier work
[6] = rat; cited from earlier work
[7] = Activity of clopidogrel metabolite; conditions: metabolite in the clopidogrel pathway
Source text: Thus, the influence that the patient's ability to metabolize has on efficacy is reduced.

[8] = patients at high risk of vascular events
[9] = combined with Aspirin therapy, patients with ACS

CC(=O)Oc1ccccc1C(=O)O [Aspirin]
Absolute risk increase (ARI), major bleeding events [1, 8]: about 0.5%
Absolute risk reduction (ARR), recurrent ischemic events [1, 8]: about 2%
Increase in the odds of major bleeding events [1, 8]: about 60%
Reduction of the risk of recurrent ischemic events [1, 8]: 22%

COC(=O)[C@H](c1ccccc1Cl)N1CCc2sccc2C1 [Clopidogrel bisulphate]
inhibition at 12.5 mg/kg ([2]; Rattus norvegicus, Platelet, oral dose 12.5 mg/kg (base 9.813 mg/kg)): 82%
inhibition at 25 mg/kg ([2]; Rattus norvegicus, Platelet, oral dose 25 mg/kg (base 19.225 mg/kg)): 89%
% aggregation (height) ([2]; oral dose 12.5 mg/kg (base 9.813 mg/kg), control 103 ± 3): 19 ± 4%
% aggregation (height) ([2]; oral dose 25 mg/kg (base 19.225 mg/kg), control 103 ± 3): 11 ± 1%
% inhibition ([3]; dose 10 mg/kg (base 7.69 mg/kg)): 67%
Weight of thrombus ([3]; dose 10 mg/kg (base 7.69 mg/kg), control 3.9 ± 0.3): 1.26 ± 0.19 mg
% inhibition ([3]; dose 20 mg/kg (base 15.38 mg/kg)): 69%
Weight of thrombus ([3]; dose 20 mg/kg (base 15.38 mg/kg), control 3.9 ± 0.3): 1.20 ± 0.13 mg

COC(=O)[C@H](c1ccccc1Cl)N1CCc2sccc2C1 [Clopidogrel, (+)-(S)-methyl 2-(2-chlorophenyl)-2-(6,7-dihydrothieno[3,2-c]pyridin-5(4H)-yl)acetate]
Absolute risk reduction (ARR), recurrent ischemic events [1, 9]: about 2.1%
Further reduction of the risk of recurrent ischemic events [1, 9]: 20%
Time until 50% inhibition of ADP induced platelet aggregation is reached ([4]; dose 600 mg): 2 h
Inhibition of ADP induced platelet aggregation ([4]; dose 900 mg, 5 μM ADP): 60%
Inhibition of platelet aggregation ([4]; dose 900 mg, 20 μM ADP ex vivo): less than 50%
Time until 50% inhibition of ADP induced platelet aggregation is reached ([4]; loading dose 300 mg): 4 to 6 h
Fraction converted to clopidogrel acid in vivo [5]: 90%
Lethal dose [6]: about 5000 mg per kg

O=C(O)[C@H](c1ccccc1Cl)N1CCc2sccc2C1 [Formula IV]
Activity of the metabolite [7]: inactive

COC(=O)[C@H](c1ccccc1Cl)N1CCC2SC(=O)C=C2C1 (stereo partly drawn) [Thiolactone, Methyl(S)-2(2-chlorophenyl)-2-(2,4,5,6,7,7a-hexahydrothieno[3,2-c]-5-pyridin-2-one)acetate]
inhibition at 2.5 mg/kg ([2]; Rattus norvegicus, Platelet, oral dose 2.5 mg/kg (base 2.5 mg/kg)): 95%
% aggregation (height) ([2]; oral dose 2.5 mg/kg (base 2.5 mg/kg), control 94 ± 1): 4 ± 2%
Antithrombotic activity compared with clopidogrel ([3]; Table 2): superior to clopidogrel
% inhibition ([3]; dose 12.5 mg/kg (base 12.5 mg/kg)): 76%
Weight of thrombus ([3]; dose 12.5 mg/kg (base 12.5 mg/kg), control 4.18 ± 0.31): 1.18 ± 0.18 mg
